Measured values reported in the NIST ThermoML archive (doi:10.1021/acs.jced.5b01007).

Settings: Fluid (supercritical or subcritical phases), Frequency=8 MHz, Pulse-echo method

O=O [oxygen]
Settings	speed of sound [m/s]
299.96 K, 14860 kPa	352.65
299.97 K, 9920 kPa	340.22
299.97 K, 20050 kPa	370.99
299.97 K, 25030 kPa	392.82
299.97 K, 29960 kPa	417.33
299.97 K, 34960 kPa	443.87
299.97 K, 39960 kPa	471.2
299.97 K, 45030 kPa	498.92
299.97 K, 50010 kPa	525.82
299.97 K, 55140 kPa	552.86
299.97 K, 60160 kPa	578.47
299.97 K, 64960 kPa	602.28
299.97 K, 69690 kPa	624.95
300 K, 74030 kPa	645.07
349.98 K, 8030 kPa	367.01
349.98 K, 29990 kPa	433.29
349.98 K, 49900 kPa	518.73
349.98 K, 78850 kPa	641.85
349.99 K, 10070 kPa	370.9
349.99 K, 14980 kPa	382.53
349.99 K, 19640 kPa	396.03
349.99 K, 24980 kPa	414.2
349.99 K, 35080 kPa	454.09
349.99 K, 45020 kPa	497.15
349.99 K, 55110 kPa	541.66
349.99 K, 59910 kPa	562.59
349.99 K, 68690 kPa	600.07
350.03 K, 40050 kPa	475.39
350.03 K, 64930 kPa	584.11
399.05 K, 83180 kPa	648.15
399.06 K, 19900 kPa	421.58
399.07 K, 74590 kPa	617.2
399.07 K, 79990 kPa	636.78
399.08 K, 34890 kPa	469.6
399.08 K, 39970 kPa	487.82
399.08 K, 44980 kPa	506.29
399.08 K, 54970 kPa	543.88
399.08 K, 60070 kPa	563.14
399.08 K, 64900 kPa	581.28
399.08 K, 70100 kPa	600.65
399.09 K, 4960 kPa	388.03
399.09 K, 6020 kPa	389.77
399.09 K, 7950 kPa	393.26
399.09 K, 25010 kPa	436.72
399.09 K, 29900 kPa	452.47
399.09 K, 50090 kPa	525.43
399.1 K, 15010 kPa	408.72
399.11 K, 9980 kPa	397.34
449.79 K, 87520 kPa	660.32
449.87 K, 80010 kPa	636.12
449.88 K, 75270 kPa	620.61
449.88 K, 85020 kPa	652.33
449.89 K, 65180 kPa	587.16
449.89 K, 70120 kPa	603.58
449.9 K, 55090 kPa	553.54
449.9 K, 60070 kPa	570.12
449.93 K, 35030 kPa	488.6
449.93 K, 40050 kPa	504.35
449.94 K, 6010 kPa	414.33
449.94 K, 9970 kPa	422.01
449.94 K, 15000 kPa	433.26
449.94 K, 20010 kPa	445.6
449.94 K, 24940 kPa	458.85
449.94 K, 30000 kPa	473.4
449.94 K, 45090 kPa	520.58
449.94 K, 49910 kPa	536.52
449.95 K, 8010 kPa	418.16
449.95 K, 88050 kPa	662.01
498.83 K, 69940 kPa	610.55
498.89 K, 60010 kPa	580.54
498.89 K, 65000 kPa	595.63
498.9 K, 95000 kPa	684.96
498.91 K, 74960 kPa	625.69
498.91 K, 90000 kPa	670.28
498.91 K, 100060 kPa	699.53
498.92 K, 79990 kPa	640.74
498.93 K, 84890 kPa	655.27
498.94 K, 10000 kPa	444.64
498.99 K, 40010 kPa	521.13
499 K, 29910 kPa	492.81
499 K, 34730 kPa	506.11
499 K, 44900 kPa	535.41
499.01 K, 24900 kPa	479.52
499.02 K, 14940 kPa	455.31
499.03 K, 4920 kPa	434.71
499.03 K, 5910 kPa	436.52
499.03 K, 7820 kPa	440.23
499.03 K, 49930 kPa	550.29
499.03 K, 54810 kPa	564.89
499.04 K, 20070 kPa	467.39
